This is an account of results in US12037340B2, “Pentacyclic derivatives as Zika virus inhibitors” (Gilead Sciences, Inc., priority 2021, dated 2024).

In the test the test system is ZIKV. In words: microbe, parasite or virus in culture. The following applies: Zika virus, Huh-7; 48 hrs. Type of test: cell-based, Zika virus.

Consider `CC[C@H](C)[C@H](NC(=O)OC)C(=O)N1C[C@@H](COC)C[C@H]1c1nc(Br)c(-c2ccc3c(c2)COc2cc4c(ccc5nc([C@@H]6CC[C@H](C)N6C(=O)[C@@H](NC(=O)OC)C(C)C)[nH]c54)cc2-3)[nH]1` [Compound 17, methyl ((S)-1-((2S,5S)-2-(9-(4-bromo-2-((2S,4S)-1-((methoxycarbonyl)-L-isoleucyl)-4-(methoxymethyl)pyrrolidin-2-yl)-1H-imidazol-5-yl)-1,11-dihydroisochromeno[4′,3′:6,7]naphtho[1,2-d]imidazol-2-yl)-5-methylpyrrolidin-1-yl)-3-methyl-1-oxobutan-2-yl)carbamate], for which the half-maximal effective concentration (EC50) was 15.6 nM. This counts as double-digit nanomolar.
`COC[C@H]1C[C@@H](c2nc(Cl)c(-c3ccc4c(c3)COc3cc5c(ccc6nc([C@@H]7CC[C@H](C)N7C(=O)[C@@H](NC(=O)OC)C(C)C)[nH]c65)cc3-4)[nH]2)N(C(=O)[C@@H](NC(=O)OC)C2CCOCC2)C1` [Compound 6, methyl ((S)-1-((2S,5S)-2-(9-(4-chloro-2-((2S,4S)-1-((S)-2-((methoxycarbonyl)amino)-2-(tetrahydro-2H-pyran-4-yl)acetyl)-4-(methoxymethyl)pyrrolidin-2-yl)-1H-imidazol-5-yl)-1,11-dihydroisochromeno[4′,3′:6,7]naphtho[1,2-d]imidazol-2-yl)-5-methylpyrrolidin-1-yl)-3-methyl-1-oxobutan-2-yl)carbamate] had a 50% effective concentration (EC50) of 133 nM.
